Like-named read-outs stand apart in the source and are kept apart here. Marks after values point to notes of the source that are not given here.
Key:
[1] = In vivo drug levels in CSF and blood plasma, and unbound CSF to plasma ratio (literature data); parameters: species or system humans; details: human, calculated from literature values (Qalb 0.005)
Experimental: For comparison between in vitro and in vivo levels of small molecules in CSF, in vivo unbound CSF to blood plasma ratio, Kp,uu,CSF, was calculated as the ratio of the unbound drug in CSF (Cu,CSF) to that in blood plasma (Cu,p) similar to previously described (7) (eq A). The amount of unbound drug in each of CSF and plasma is the product of the total drug concentration (Cp) or (CCSF) and the fraction of drug that is unbound (fu,p) or (fu,CSF)(eqs B and C). Cp, CCSF, and fu,p were taken from literature (Table S2). However, because of the difficulty in obtaining large amounts of CSF, for most drugs fu,CSF is not known.

ChP epithelial barrier [2] = test system: ChP epithelial barrier; parameters: Km, uu, iCSF: unit not given beside the values
[3] = in vivo, from literature, cited from earlier work
[4] = cited from earlier work
[5] = six trial participants, one of whom died; cited from earlier work
ChP epithelial barrier [6] = experiment: ChP organoid small-molecule permeability, NMR analysis of media and iCSF; details: for Presence in iCSF by NMR: after 2h incubation, 500 μM, L-Dopa in the presence of Carbidopa
Experimental: On day 5 media was replaced with NI media in the same 96-well. After two days EBs were embedded in 20 μl matrigel using sheets of dimpled parafilm and incubated for 20 min at 37° C. as previously described (2). EBs were then transferred to a 6-well plate with 3 ml of Expansion media per well. For ChP patterning, on day 10 treatment with 3 μM CHIR and 20 ng/ml BMP4 in Maturation media was used keeping a maximum number of 6 EBs in each 5 cm dish. The treatment was kept for 7 days in maturation media. On day 15 organoids were moved to an incubator with a shaker and were fed every 3-4 days with maturation media. From day 30 dissolved matrigel (1:50) was added to the maturation media.
For NMR experiments, ChP organoids were incubated in complete IDM+A media without phenol red and 1:50 Geltrex (Gibco, A14132-02) for 2 h, 12h, 24 h, 48h or 72h. Organoid media and iCSF were collected and centrifuged at 500 g for 5 min to remove debris. ^1H-NMR spectra were acquired using a Bruker Ultrashield 400 Plus operating at 400.1 MHz. Samples consisting of H2O/D2O mixtures were analyzed using HOD suppression to collect ^1H-NMR data. Chemical shifts (6) are shown in ppm. The yields of conversion were determined by relative integration of the signals in the ^1H-NMR spectra. Data analysis was performed using MestReNova (version 7.0) and GraphPad Prism (version 7.0b).
Because the NMR measurements of in vitro fluids detected unbound drug, the ratio (Km,uu,iCSF) was a simple function of the ratio of drug in in vitro CSF (Cu,iCSF) to drug in media (Cu,m) (eq E).
Thus, in order to test for such selective permeability to small molecules, we applied various therapeutically relevant small molecules and assayed their permeability by NMR analysis of organoid iCSF. […] We incubated the organoids with Dopa and with L-Dopa in the presence of Carbidopa, a small molecule that prevents the conversion of L-Dopa into Dopa (34, 35).

[7] = in vivo data from mouse
Description: Pre-clinical or clinical data of this molecule in humans are not yet available, but Phase I clinical trials are under way so any additional human in vitro data would be informative.

[8] = cited from earlier work; remark: listed apart in the source
protein misfolding = details: mouse model of Charcot-Marie Tooth-1B; cited from earlier work
[9] = unbound concentrations reported, average of two measurements
[10] = in vivo data from mouse, estimate from graph in reference
[11] = total drug concentration in blood plasma
[12] = total drug concentration in CSF

For NCCc1ccc(O)c(O)c1 [Dopamine], the Kp uu [1] is listed as 0.185, the “Km, uu, iCSF” value (ChP epithelial barrier [2]) is listed as 0.10 and the CCSF ([3]; Δ upon injection) is listed as 9.01 ng/mL. The Cp ([3]; Δ upon injection) was 67.4 ng/mL and the “Entry into brain/CSF in vivo as established in the literature” value (from here on “Entry into brain/CSF in vivo”) [4] was “doesn't enter the brain in vivo”.
For CN(C(=O)n1cnc(-c2ccc[n+]([O-])c2)c1)C1CCCCC1 [BIA-10-2474], the “Adverse effects in Phase I clinical trials” value [5] is listed as “severe neurotoxicity”, the “Time course of the ratio in iCSF to media” value (ChP epithelial barrier [6]; 2 h, 12h, 24 h and 72h) is listed as “continued to accumulate in the iCSF” and the “Presence in iCSF by NMR” value (ChP epithelial barrier [6]) is listed as “able to cross the ChP epithelial barrier”.
In the case of CC[C@]1(O)C[C@H]2CN(CCc3c([nH]c4ccccc34)[C@@](C(=O)OC)(c3cc4c(cc3OC)N(C=O)[C@H]3[C@@](O)(C(=O)OC)[C@H](OC(C)=O)[C@]5(CC)C=CCN6CC[C@]43[C@@H]65)C2)C1 [Vincristine], the Kp uu [1] is listed as 0.042, the CCSF [3, 9] is listed as 0.855 nM and the Cp [3, 9] is listed as 0.0205 µM. The “Entry into brain/CSF in vivo” value [4] was “poorly cross the BBB”.
For NC(N)=N/N=C/c1ccccc1Cl [Sephin 1], the “Kp, uu, CSF (total compound brain to plasma ratio)” value [7] is given as 10^#, the CCSF [8, 10] is given as ~110 ng/g and the Cp [8, 10] is given as ~11 ng/mL. For the same compound, the “BBB crossing in mouse” value ([8]; mouse) was “cross the BBB”, the “CNS effect against protein misfolding” value (protein misfolding) was “protective CNS role against protein misfolding” and the “Permeability in the human organoid model compared with the mouse model” value (ChP epithelial barrier [6]; 2h incubation, compared with published mouse data) was “much lower”. The “Presence in iCSF by NMR” value (ChP epithelial barrier [6]) was “detectable”.
For CC(NC(C)(C)C)C(=O)c1cccc(Cl)c1 (stereo not drawn) [Bupropion], the “Km, uu, iCSF” value (ChP epithelial barrier [2]) is given as 1.07 and the Cp [3, 11] is given as 29.8 ng/mL.
For N[C@@H](Cc1ccc(O)c(O)c1)C(=O)O [L-DOPA, Levodopa], the “iCSF/media ratio, L-Dopa compared to Dopa” value (ChP epithelial barrier [2]) is given as “consistently higher”, the CCSF [3, 12] is given as ~150 ng/mL and the Cp [3, 11] is given as ~400 ng/mL. For the same compound, the “Entry into brain/CSF in vivo” value [4] was “actively transported in to the CSF via the LAT-1 transporter”.
In the case of CN(Cc1cnc2nc(N)nc(N)c2n1)c1ccc(C(=O)N[C@@H](CCC(=O)O)C(=O)O)cc1 [Methotrexate], the Kp uu [1] is given as 0.04, the “Km, uu, iCSF” value (ChP epithelial barrier [2]) is given as 0.01 and the CCSF [3, 12] is given as 270 nM. For the same compound, the Cp [3, 11] was 15.8 µM and the “Entry into brain/CSF in vivo” value [4] was “poorly cross the BBB”.
